This note sets out measurements from US10017492B2 (KANGPU BIOPHARMACEUTICALS, LTD., priority 2014, dated 2018).

Structures are written as SMILES. Where two headings read alike, the source gives them in different places.

Assay [1] has as its system MM.1S cells (myeloma cells). The experiment in a line: Cell proliferation assay (MTS), MM.1S myeloma cells. Format: cell-based. To be noted: 72 hours, read-out: IC50 values of MMIS Inhibition. As for the experimental part: MM.1S cells (myeloma cells) (ATCC, catalog number CRL-2974) were seeded at 1.8×10^3 per well to a 96-well culture plate containing […] (Gibco, catalog number A10491-01), and were incubated in an incubator for 24 hours at 37° C. under 5% CO2. Compounds were prepared as 20 mM stock solutions with DMSO (Sigma, catalog number D2650), and were diluted with the medium to the desired concentration (the final concentration of DMSO was 0.5%) and then were added to each well, incubated in an incubator for 72 hours at 37° C. under 5% CO2. Then, 20 μL MTS (Promega, catalog number G3581) was added to each well, and further incubated for 1-4 hours in an incubator at 37° C. under 5% CO2. OD490 nm was detected with OD650 nm as reference. The control, a solution containing 0.5% DMSO medium, was as 0% inhibition. GraphPad Prism 5 was used, slope was allowed to change to make the dose-effect curve and IC50 values were calculated, shown in table 2 for details.

The subject of the next assay is TNF-α. Kind of assay: TNF-α activity inhibiting assay (LPS-stimulated peripheral blood, ELISA). Particulars: compound 100 nM, diluted peripheral blood of healthy volunteers, LPS 10 ng/mL, 6 hours; for inhibition at 0.1 µM: Homo sapiens, read-out: Inhibitory Rate on TNF-α (%). Format: cell-based, human. The protocol:
TNF-α Activity Inhibiting Assay
Peripheral blood from healthy volunteers was collected and collected with EDTA anticoagulant tubes. After being diluted 5-fold with 1640 medium (Gibco, catalog number 11875-093, USA), the blood was added to 96-well cell culture plates (Costar, catalog number 3599, USA) and then treated with 10 μL solution of the compound of general formula (I) of the present invention in DMSO (Sigma, catalog number D2650, USA). The final concentration of the compound was 100 nM, and the final concentration of DMSO was 0.2%. After incubation for 60 minutes in an incubator at 37° C. under 5% CO2, 10 μL LPS (Sigma, catalog number L-2880, USA) was added to the reaction system, and the final concentration was 10 ng/mL. After further culturing for 6 hours in the incubator at 37° C. under 5% CO2, the supernatant was collected. The content of TNF-α was determined by ELISA (BD Biosciences, catalog number 555212, USA). Absorbance was detected at OD450 nm with a microplate reader, with OD 650 nm as reference. The control, a solution containing 0.2% DMSO medium, was as 0% inhibition. Raw data and standard curves were recorded. The four-parameter drug inhibition curve was plotted by XL-fit software and the inhibition rate of each compound was calculated, as shown in Table 1.
(ELISA stands for enzyme-linked immunosorbent assay.)

Take `O=C1CCC(N2Cc3c(OCc4ccccc4F)cccc3C2=O)C(=O)N1` (stereo not shown) [Compound A336, 3-[4-(2-Fluoro-benzyloxy)-1-oxo-1,3-dihydro-isoindol-2-yl]-piperidine-2,6-dione]: the IC50 (usually the concentration that inhibits the measured activity by half) in assay [1] (Homo sapiens, MM1.S) is below 300 nM. With `COc1ccc(CNc2cccc3c2CN(C2CCC(=O)NC2=O)C3=O)cc1Cl` (stereo not shown) [Compound A354, 3-(4-((3-chloro-4-methoxybenzyl)amino)-1-oxoisoindolin-2-yl)piperidine-2,6-dione], the inhibition at 0.1 µM in the assay on TNF-α was below 50%. In addition, the IC50 in assay [1] (Homo sapiens, MM1.S) was below 300 nM. The corresponding values for `COCCOc1ccc(F)c(CNc2cccc3c2CN(C2CCC(=O)NC2=O)C3=O)c1` (stereo not shown) [Compound A370, 3-(4-((2-fluoro-5-(2-methoxyethoxy)benzyl)amino)-1-oxoisoindolin-2-yl)piperidine-2,6-dione] are below 50% and at least 300 nM. With `Nc1cccc(CNc2cccc3c2CN(C2CCC(=O)NC2=O)C3=O)c1F` (stereo not shown) [Compound A384, 3-(4-((3-amino-2-fluorobenzyl)amino)-1-oxoisoindolin-2-yl)piperidine-2,6-dione], the inhibition at 0.1 µM in the assay on TNF-α was at least 50%. The IC50 in assay [1] (Homo sapiens, MM1.S) is below 300 nM. On the same counts, the results for `[2H][C@]1(N2Cc3c(OCc4ccc(OC)cc4F)cccc3C2=O)CCC(=O)NC1=O` [Compound A393, (S)-3-deuterium-3-(4-((2-fluoro-4-methoxybenzyl)oxy)-1-oxoisoindolin-2-yl)piperidine-2,6-dione] are below 50% and below 300 nM. Take `[2H]C1(N2Cc3c(N)cc(F)cc3C2=O)CCC(=O)NC1=O` (racemic) [Compound I-01]: the inhibition at 0.1 µM with TNF-α was above 50%.

In the case of `CNc1ccc(F)c(CNc2cccc3c2CN(C2CCC(=O)NC2=O)C3=O)c1` (stereo not shown) [Compound A387, 3-(4-((2-fluoro-5-(methylamino)benzyl)amino)-1-oxoisoindolin-2-yl)piperidine-2,6-dione], the inhibition at 0.1 µM with TNF-α is at least 50%. Also, in assay [1] (Homo sapiens, MM1.S), the IC50 is below 300 nM. Consider `CNC(=O)c1cccc(CNc2cccc3c2CN(C2CCC(=O)NC2=O)C3=O)c1F` (stereo not shown) [Compound A362, 3-(((2-(2,6-Dioxopiperidin-3-yl)-1-oxoisoindolin-4-yl)amino)methyl)-2-fluoro-N-methylbenzamide], for which the inhibition at 0.1 µM in the assay with TNF-α was below 50%. Also, in assay [1] (Homo sapiens, MM1.S), the IC50 is at least 300 nM. For `COc1ccc(F)c(CNc2cc(F)cc3c2CN(C2CCC(=O)NC2=O)C3=O)c1` (stereo not shown) [Compound A320, 3-(6-fluoro-4-((2-fluoro-5-methoxybenzyl)amino)-1-oxoisoindolin-2-yl)-piperidine-2,6-dione], the inhibition at 0.1 µM in the assay with TNF-α is below 50%. In assay [1] (Homo sapiens, MM1.S), the IC50 is at least 300 nM. As for `CNC(=O)Oc1ccc(F)c(CNc2cccc3c2CN(C2CCC(=O)NC2=O)C3=O)c1` (stereo not shown) [Compound A371, 3-(((2-(2,6-Dioxopiperidin-3-yl)-1-oxoisoindolin-4-yl)amino)methyl)-4-fluorophenyl methylcarbamate], in the assay with TNF-α, the inhibition at 0.1 µM was at least 50%. In addition, in assay [1] (Homo sapiens, MM1.S), the half-maximal inhibitory concentration (IC50) is below 300 nM.

As for `NC(=O)c1cccc(CNc2cccc3c2CN(C2CCC(=O)NC2=O)C3=O)c1F` (stereo not shown) [Compound A361, 3-(((2-(2,6-Dioxopiperidin-3-yl)-1-oxoisoindolin-4-yl)amino)methyl)-2-fluorobenzamide], the inhibition at 0.1 µM in the assay with TNF-α was at least 50%. Besides, in assay [1] (Homo sapiens, MM1.S), the IC50 is below 300 nM.

As to `Cc1ccc(CNc2cccc3c2CN(C2CCC(=O)NC2=O)C3=O)cc1F` (stereo not shown) [Compound A353, 3-(4-((3-fluoro-4-methylbenzyl)amino)-1-oxoisoindolin-2-yl)piperidine-2,6-dione], the inhibition at 0.1 µM in the assay on TNF-α was below 50%. Besides, the IC50 in assay [1] (Homo sapiens, MM1.S) is below 300 nM.

Consider `Cc1ccc(CNc2cccc3c2CN(C2CCC(=O)NC2=O)C3=O)cc1Cl` (stereo not shown) [Compound A352, 3-(4-((3-chloro-4-methylbenzyl)amino)-1-oxoisoindolin-2-yl)piperidine-2,6-dione], for which the inhibition at 0.1 µM in the assay on TNF-α is below 50%. In addition, the IC50 in assay [1] (Homo sapiens, MM1.S) is below 300 nM. The corresponding values for `COc1cccc(CNc2cc(F)cc3c2CN(C2CCC(=O)NC2=O)C3=O)c1F` (stereo not shown) [Compound A318, 3-(6-fluoro-4-((2-fluoro-3-methoxybenzyl)amino)-1-oxoisoindolin-2-yl)-piperidine-2,6-dione] are below 50% and at least 300 nM. The corresponding values for `COc1cccc(CNc2cccc3c2CN(C2CCC(=O)NC2=O)C3=O)c1F` (stereo not shown) [Compound A196, 3-(4-((2-fluoro-3-methoxybenzyl)amino)-1-oxoisoindolin-2-yl)piperidine-2,6-dione] are at least 50% and below 300 nM.

Take `O=C1CCC(N2Cc3c(NCc4ccc(CN5CCOCC5)cc4)cc(F)cc3C2=O)C(=O)N1` (stereo not shown) [Compound A405, 3-(6-fluoro-4-((4-(morpholinomethyl)benzyl)amino)-1-oxoisoindolin-2-yl)piperidine-2,6-dione]: the inhibition at 0.1 µM with TNF-α is below 50%. In assay [1] (Homo sapiens, MM1.S), the IC50 was at least 300 nM. On the same counts, the results for `CC(=O)Nc1cccc(CNc2cccc3c2CN(C2CCC(=O)NC2=O)C3=O)c1F` (stereo not shown) [Compound A388, N-(3-(((2-(2,6-dioxopiperidin-3-yl)-1-oxoisoindolin-4-yl)amino)methyl)-2-fluorophenyl)acetamide] are at least 50% and below 300 nM. The corresponding values for `[2H][C@@]1(N2Cc3c(NCc4cc(OC)ccc4F)cccc3C2=O)CCC(=O)NC1=O` [Compound A342, (R)-3-deuterium-3-(4-((2-fluoro-5-methoxybenzyl)amino)-1-oxoisoindolin-2-yl)piperidine-2,6-dione] are below 50% and at least 300 nM. The corresponding values for `Cc1cc(CNc2cccc3c2CN(C2CCC(=O)NC2=O)C3=O)ccc1F` (stereo not shown) [Compound A351, 3-(4-((4-fluoro-3-methylbenzyl)amino)-1-oxoisoindolin-2-yl)piperidine-2,6-dione] are below 50% and below 300 nM. Regarding `Nc1ccc(F)c(CNc2cccc3c2CN(C2CCC(=O)NC2=O)C3=O)c1` (stereo not shown) [Compound A391, 3-(4-((5-amino-2-fluorobenzyl)amino)-1-oxoisoindolin-2-yl)piperidine-2,6-dione], the inhibition at 0.1 µM in the assay on TNF-α was at least 50%. Moreover, in assay [1] (Homo sapiens, MM1.S), the IC50 was at least 300 nM.

As to `[2H][C@]1(N2Cc3c(OCc4cc(OC)ccc4F)cccc3C2=O)CCC(=O)NC1=O` [Compound A379, (S)-3-deuterium-3-(4-((2-fluoro-5-methoxybenzyl)oxy)-1-oxoisoindolin-2-yl)piperidine-2,6-dione], the inhibition at 0.1 µM in the assay on TNF-α was below 50%. In assay [1] (Homo sapiens, MM1.S), the IC50 is below 300 nM. For the compound `[2H]C1(N2Cc3c(NCc4ccc(CN5CCOCC5)cc4F)cccc3C2=O)CCC(=O)NC1=O` (stereo not shown) [Compound A426], in the assay on TNF-α, the “Inhibitory Rate on TNF-α (%)” value was at least 50%. The IC50 in assay [1] is below 300 nM.

Turning to `[2H]C1(N2Cc3c(OCc4ccc(CN5CCOCC5)cc4F)cccc3C2=O)CCC(=O)NC1=O` (stereo not shown) [Compound A425, 3-deuterium-3-(4-((2-fluoro-5-(morpholinomethyl)benzyl)oxy)-1-oxoisoindolin-2-yl)piperidine-2,6-dione], the “Inhibitory Rate on TNF-α (%)” value in the assay with TNF-α is reported as at least 50%. Further, in assay [1], the IC50 is below 300 nM. For `COc1ccc(CNc2cc(F)cc3c2CN(C2CCC(=O)NC2=O)C3=O)c(F)c1` (stereo not shown) [Compound A319, 3-(6-fluoro-4-((2-fluoro-4-methoxybenzyl)amino)-1-oxoisoindolin-2-yl)-piperidine-2,6-dione], the inhibition at 0.1 µM with TNF-α was below 50%. In addition, the IC50 in assay [1] (Homo sapiens, MM1.S) was at least 300 nM.
